Assay results as given in patent US4046879A, “Antiviral compositions” (priority 1975, dated 1977).

How the values were obtained:
[1] = system: radioactive-labeled rhinovirus ribonucleic acid; experiment: Synergism test: inducible decomposition of P32-labeled rhinovirus RNA; format: biochemical; conditions: 30 minutes, pH 7.6, 36° C.
Procedure: 6. The synergistic effect of the complexing agent (e.g. sodium pyrophosphate) and phosphorylating agent (e.g. adenosine triphosphate) was shown by means of the inducible decomposition of radioactive-labeled rhinovirus ribonucleic acid: Aliquotes (10^6 plaque-forming units) of purified rhinoviruses, the ribonucleic acid of which had been labeled with phosphorus-32, were incubated for 30 minutes with 5 n moles of adenosine triphosphate, either separately or with increasing quantities of sodium pyrophosphate at a pH-value of 7.6 and 36° C. As control values sodium pyrophosphate was used in various concentrations without adenosine triphosphate.

[2] = system: rhinovirus-ribonucleic acid; experiment: Role of the hydrolyzable β-γ-oxygen-bridge in autocatalytic degradation of rhinovirus RNA; format: biochemical
Text: 3. The essential role of the hydrolyzable β-γ-oxygen-bridge in the nucleoside triphosphate for the autocatalytic degradation of the rhinovirus-ribonucleic acid was shown by: […]

Nc1ncnc2c1ncn2[C@@H]1O[C@H](COP(=O)(O)OP(=O)(O)OP(=O)(O)O)[C@@H](O)[C@H]1O [Adenosine triphosphate, adenosine triphosphate]
% degradation of the viral ribonucleic acid ([1]; adenosine triphosphate 5 n moles, sodium pyrophosphate 0): < 7.5% | removal of P^32-labeled γ-phosphate during the reaction with rhinovirus ([2]; Mg^++ -ion free medium): formation of adenosine diphosphate and rhinovirus-bonded P^32

Nc1ncnc2c1ncn2[C@@H]1O[C@H](COP(=O)(O)OP(=O)(O)NP(=O)(O)O)[C@@H](O)[C@H]1O [Adenosine-imido-diphosphate]
initiating the autocatalytic inactivation of the rhinoviruses [2]: completely ineffective

O=P([O-])([O-])OP(=O)([O-])[O-].[Na+].[Na+].[Na+].[Na+] [Sodium pyrophosphate, sodium pyrophosphate]
% degradation of the viral ribonucleic acid ([1]; adenosine triphosphate 0, sodium pyrophosphate 50 n moles): < 10% | % degradation of the viral ribonucleic acid ([1]; adenosine triphosphate 0, sodium pyrophosphate 250 n moles): < 10% | % degradation of the viral ribonucleic acid ([1]; adenosine triphosphate 0, sodium pyrophosphate 500 n moles): < 10%

Nc1ncnc2c1ncn2[C@@H]1O[C@H](COP(=O)(O)OP(=O)(O)O)[C@@H](O)[C@H]1O [adenosine diphosphate]
induction of the autocatalytic RNA-degradation [2]: Inactivity
